Here are results for 27 compounds from US9758492B2, “IDO inhibitors” (Bristol-Myers Squibb Company, priority 2013, dated 2017).

The target in this experiment is IDO (Homo sapiens, UniProt P14902). Description: LLE_IDO_ABS_DR (IDO assay).
Sequence of IDO (P14902 whole entry): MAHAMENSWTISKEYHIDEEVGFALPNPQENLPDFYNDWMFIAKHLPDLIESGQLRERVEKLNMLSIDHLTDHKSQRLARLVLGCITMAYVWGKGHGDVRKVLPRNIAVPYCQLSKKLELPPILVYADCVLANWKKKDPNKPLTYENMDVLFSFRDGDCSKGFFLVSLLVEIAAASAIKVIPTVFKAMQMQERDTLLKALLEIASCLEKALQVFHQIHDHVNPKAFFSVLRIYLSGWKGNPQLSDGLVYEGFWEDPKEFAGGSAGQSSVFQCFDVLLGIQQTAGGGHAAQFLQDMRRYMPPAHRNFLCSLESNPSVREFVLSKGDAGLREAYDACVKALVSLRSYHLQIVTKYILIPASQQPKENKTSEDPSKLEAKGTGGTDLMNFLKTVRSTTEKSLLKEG

A word on the IC50: it is the concentration that gives 50% inhibition. A lower IC50 goes with greater potency in that assay. As for `Cc1ccc(NC(=O)Nc2cc(-c3ccccc3C(=O)O)ccc2N(CC(C)C)C2CCC2)cc1` [Example 183, 4′-(cyclobutyl(isobutyl)amino)-3′-(3-(p-tolyl)ureido)-[1,1′-biphenyl]-2-carboxylic acid], the IC50 was found to be 20 nM.

With `CC(C)CN(CCC1CC1)c1ccc(-c2sccc2C(=O)O)cc1NC(=O)Nc1ccccc1F` [Example 136, 2-(4-((2-cyclopropylethyl) (isobutyl)amino)-3-(3-(2-fluorophenyl)ureido)phenyl)thiophene-3-carboxylic acid], the IC50 was 70 nM. In turn, `CCN(c1ccc(-c2ccccc2C(=O)O)cc1NC(=O)Nc1ccc(C)cc1)C1CCCC1` [Example 76, 4′-(cyclopentyl(ethyl)amino)-3′-(3-p-tolylureido)biphenyl-2-carboxylic acid] displayed an IC50 of 20 nM. For `CC(C)CN(c1cc(F)c(-c2cc(F)ccc2C(=O)O)cc1NC(=O)Nc1ccccc1F)C1CCCCC1` [Example 229, 4′-(cyclohexyl(isobutyl)ami-no)-2′,5-difluoro-5′-(3-(2-fluorophenyl)ureido) biphenyl-2-carboxylic acid], the IC50 was 2.56 nM. `CCCCN(CCCC)c1ccc(-c2ccccc2C(=O)O)cc1NC(=O)Nc1ccc(C)cc1` [Example 89, 4′-(dibutylamino)-3′-(3-p-tolylureido) biphenyl-2-carboxylic acid] had an IC50 of 50 nM.

In the case of `O=C(Nc1ccc(OC(F)(F)F)cc1)Nc1cc(-c2ccccc2-c2nnn[nH]2)ccc1N1CCC(F)(F)C1` [Example 316, 1-(4-(3,3-difluoropyrrolidin-1-yl)-2′-(1H-tetrazol-5-yl)-[1,1′-biphenyl]-3-yl)-3-(4-(trifluoromethoxy)phenyl)urea], the IC50 was determined as 7720 nM. Under `CC(C)CN(c1ccc(-c2ccccc2-c2nnn[nH]2)cc1NC(=O)Nc1ccc(F)cc1F)C(C)C` [Example 156, 1-(2,4-difluorophenyl)-3-(4-(isobutyl (isopropyl)amino)-2′-(1H-tetrazol-5-yl)biphenyl-3-yl)urea] stands 7.45 nM; under `CC(C)CN(CC(C)C)c1ccc(-c2ccccc2-c2nnn[nH]2)cc1NC(=O)NCC(C)(C)C` [Example 141, 1-(4-(diisobutylamino)-2′-(1H-tetrazol-5-yl)biphenyl-3-yl)-3-neopentylurea], 430 nM. In turn, `Cc1ccc(NC(=O)Nc2cc(-c3ccccc3C(=O)O)ccc2N(Cc2ccccc2)CC(F)F)cc1` [Example 20, 4′-(Benzyl(2,2-difluoroethyl)amino)-3′-(3-(p-tolyl)ureido)-[1,1′-biphenyl]-2-carboxylic acid] came in with an IC50 of 130 nM. For the compound `CC(C)CN(CC(C)C)c1ccc(-c2ccccc2-c2nnn[nH]2)cc1NC(=O)Nc1ccc(C(F)(F)F)cc1` [Example 249], half-maximal inhibition (IC50) required 140 nM. `CN(c1ccc(-c2ccccc2-c2nnn[nH]2)cc1NC(=O)Nc1ccccc1F)c1ccccc1C(C)(C)C` [Example 207, 1-(4-((2-(tert-butyl)phenyl) (methyl)amino)-2′-(1H-tetrazol-5-yl)-[1,1′-biphenyl]-3-yl)-3-(2-fluorophenyl)urea] gave an IC50 of 130 nM. Compound `Cc1ccc(NC(=O)Nc2cc(-c3ccccc3-c3nnn[nH]3)ccc2N(CC(C)C)CC2CCC2)cc1` [Example 98, 1-(4-((cyclobutylmethyl) (isobutyl)amino)-2′-(1H-tetrazol-5-yl)biphenyl-3-yl)-3-p-tolylurea] yielded an IC50 of 30 nM. On to `Cc1ccc(NC(=O)Nc2cc(-c3ccccc3-c3nnn[nH]3)ccc2N(CCC(C)C(F)(F)F)C2CCCCC2)cc1` (stereo not drawn) [Example 190, 1-(4-(cyclohexyl(4,4,4-trifluoro-3-methylbutyl)amino)-2′-(1H-tetrazol-5-yl)-[1,1′-biphenyl]-3-yl)-3-(p-tolyl)urea], for which the IC50 is 80 nM. `C#Cc1ccc(NC(=O)Nc2cc(-c3ccccc3-c3nnn[nH]3)ccc2N(CC(C)C)CC(C)C)cc1` [Example 278, 1-(4-(diisobutylamino)-2′-(1H-tetrazol-5-yl)-[1,1′-biphenyl]-3-yl)-3-(4-ethynylphenyl)urea] yielded an IC50 of 1.31 nM. `Cc1ccc(NC(=O)Nc2cc(-c3ccccc3-c3nnn[nH]3)ccc2N2CCC(c3nc(C)no3)C2)cc1` (stereo not drawn) [Example 389] gave an IC50 of 620 nM. Consider `CCCN(c1ccc(-c2ccccc2C(=O)O)cc1NC(=O)Nc1ccc(C)cc1)C1CCCCC1` [Example 86, 4′-(cyclohexyl(propyl)amino)-3′-(3-p-tolylureido)biphenyl-2-carboxylic acid], for which the IC50 came out at 4.16 nM. Compared with the last compound, the IC50 is about 150-fold lower.

For `[2H]C([2H])(C(C)C)N(c1ccc(-c2cc(F)ccc2C(=O)O)cc1NC(=O)Nc1ccc(C)cc1)C1CCCCC1` [Example 31, 4′-(Cyclohexyl(1,1-dideutero-2-methylpropyl)amino)-5-fluoro-3′-(3-p-tolylureido)biphenyl-2-carboxylic acid], the IC50 was 5.18 nM. Under `CC(C)CN(CC(C)C)c1ccc(-c2ccccc2-c2nnn[nH]2)cc1NC(=O)Nc1ccc(F)c(S(C)(=O)=O)c1` [Example 279, 1-(4-(diisobutylamino)-2′-(1H-tetrazol-5-yl)-[1,1′-biphenyl]-3-yl)-3-(4-fluoro-3-(methylsulfonyl)phenyl) urea] stands 5050 nM. `Cc1ccc(NC(=O)Nc2cc(-c3ccccc3C(=O)O)cc(F)c2N(CC(C)C)CC(C)C)cc1` [Example 6, 4′-(Diisobutylamino)-3′-fluoro-5′-(3-p-tolylureido)biphenyl-2-carboxylic acid] gave an IC50 of 6.47 nM. Then `Cc1ccccc1NC(=O)Nc1cc(-c2cccc(F)c2C(=O)O)ccc1N(CC(C)C)CC(C)C` [Example 69, 4′-(diisobutylamino)-3-fluoro-3′-(3-o-tolylureido)biphenyl-2-carboxylic acid], with 890 nM. Turning to `CCCCN(c1ccc(-c2ccccc2C(=O)O)cc1NC(=O)Nc1ccc(C)cc1)C1CCCCC1` [Example 177, 4′-(butyl(cyclohexyl)amino)-3′-(3-(p-tolyl)ureido)-[1,1′-biphenyl]-2-carboxylic acid], the IC50 was 9.59 nM. Turning to `Cc1ccc(NC(=O)Nc2cc(-c3cc(F)ccc3C(=O)O)ccc2N(Cc2ccc(Cl)cc2)C2CCCCC2)cc1` [Example 469], 720 nM corresponded to half-maximal inhibition (IC50). With `Cc1ccc(NC(=O)Nc2cc(-c3ccccc3-c3nnn[nH]3)ccc2N(CC(F)F)C2CCCCC2)cc1` [Example 194, 1-(4-(cyclohexyl(2,2-difluoroethyl)amino)-2′-(1H-tetrazol-5-yl)-[1,1′-biphenyl]-3-yl)-3-(p-tolyl)urea], the IC50 was 4.74 nM. Then `Cc1ccc(NC(=O)Nc2cc(-c3ccccc3C(=O)O)ccc2N(CC(C)C)CC(C)CC(F)(F)F)cc1` (stereo not drawn) [Example 28, 4′-(Isobutyl(4,4,4-trifluoro-2-methylbutyl)amino)-3′-(3-(p-tolyl)ureido)-[1,1′-biphenyl]-2-carboxylic acid], with 10 nM. For `Cc1ccc(NC(=O)Nc2cc(-c3cc(F)ccc3C(=O)O)ccc2N(CC(C)C)CC2CCC2)cc1` [Example 99, 4′-((cyclobutylmethyl) (isobutyl)amino)-5-fluoro-3′-(3-p-tolylureido)biphenyl-2-carboxylic acid], 90 nM corresponded to half-maximal inhibition (IC50). Turning to `CC(C)CN(CC(C)C)c1ccc(-c2ccccc2-c2nnn[nH]2)cc1NC(=O)Nc1ccc(C#N)cc1F` [Example 260], the IC50 was 6.48 nM. Compared with the last compound, the IC50 is about 14-fold lower.

Turning to `Cc1ccc(NC(=O)Nc2cc(-c3ccccc3-c3nnn[nH]3)ccc2N(CC(C)C)C2CCCC2)cc1` [Example 174, 1-(4-(cyclopentyl (isobutyl)amino)-2′-(1H-tetrazol-5-yl)biphenyl-3-yl)-3-p-tolylurea], the IC50 worked out at 9.92 nM.
